Test results taken from the supplement of paper PMC8671470.
Structures can show the parent of a compound that is named as a salt. ± gives the standard deviation of the averaged measurements.

Tests used:
Conditions in all cases: 72 h
HL-60 [1] = assay: cell viability (% survival relative to DMSO control); higher = less cytotoxic
Outline: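 Area under the curve, where listed, was derived from four-parameter log-logistic fits with drc and PharmacoGx. These fits used CellTiter-Glo viability from HL-60 cells in RPMI 1640 with 10% FBS, normalised to DMSO wells and wells holding 10 μM proteasome inhibitor. The full library was rescreened on 384-well plates in duplicate at five tenfold concentrations, 1–10,000 nM, with DMSO or 100 nM of one of three metabolic inhibitors, for 72 h at 37 °C, 5% CO2.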

THP-1 = assay: cell viability (% survival relative to DMSO control, bortezomib = 0%); higher = less cytotoxic
Outline: (§1)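 Reported values are percent survival from duplicate wells, averaged. Fifteen myeloid leukaemia cell lines were treated in 384-well plates with compounds at 1, 10, 100, 1000 or 10000 nM for 72 h at 37 °C in 5% CO2. Signals from CellTiter-Glo luminescence were scaled with vehicle as 100% and a 10 µM positive control as 0%.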

NOMO-1 = assay: as above
Outline: as §1

SHI-1 = assay: as above
Outline: as §1

K-562 = assay: as above
Outline: as §1

LAMA-84 = assay: as above
Outline: as §1

BV-173 = assay: as above
Outline: as §1

HEL = assay: as above
Outline: as §1

HL-60 [2] = assay: as above
Outline: as §1

ML-2 = assay: as above
Outline: as §1

KCL-22 = assay: as above
Outline: as §1

KG-1 = assay: as above
Outline: as §1

MOLM-13 = assay: as above
Outline: as §1

KU-812 = assay: as above
Outline: as §1

MV4-11 [3] = assay: as above
Outline: as §1

Mono-Mac-6 = assay: as above
Outline: as §1

MV4-11 [4] = system: MV4-11
Outline: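 In 384-well plates holding acoustically pre-printed compounds at five tenfold doses from 1 to 10,000 nM, in duplicate, fifteen myeloid leukaemia cell lines were grown in RPMI 1640 for 72 h at 37 °C with 5% CO2. Luminescent ATP viability was scaled between vehicle and a positive control at 10 µM. The IC50 was then taken from log-logistic dose–response fits with four parameters.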

CC(C)(Cc1ccccc1)NCC(O)c1ccc(O)c(NS(C)(=O)=O)c1 (configuration not stated) [Zinterol hydrochloride]
cell viability [%], HL-60 [1]
Conditions	0.001 µM	0.01 µM	0.1 µM	1 µM	10 µM
co-treatment: AZD3965 100 nM	99.4 ± 2.4	83.1 ± 24	101 ± 1.7	93.8 ± 2.5	95.4 ± 5.7
co-treatment: DMSO vehicle	99.8 ± 3.6	91.6 ± 15	99.8 ± 4.9	102 ± 5	95.5 ± 1.3
co-treatment: GSK2194069 100 nM	97.9 ± 2.1	100 ± 6	95.1 ± 3.6	101 ± 0.26	94.64 ± 0.55
co-treatment: pictilisib 100 nM	85.5 ± 12	91.4 ± 4.9	86.6 ± 3.3	90.4 ± 7	72.6 ± 7.7

cell viability [%]
Conditions	1 nM	10 nM	100 nM	1000 nM	10000 nM
BV-173	113	93.6	106	87	121
HEL	77.8	101	103	110	93.5
HL-60 [2]	107	113	85	87.7	112
K-562	92.5	107	99.9	107	111
KCL-22	96.1	99.4	98.2	103	95.6
KG-1	118	94.5	99.6	87.9	102
KU-812	113	93.9	106	87.1	97.6
LAMA-84	106	99.1	112	96.6	101
ML-2	95.4	93.3	93	93.9	103
MOLM-13	90.9	86.8	82.3	90.7	98
MV4-11 [3]	89.7	79.9	84.5	74.3	88.4
Mono-Mac-6	72.2	51.5	49	48.6	50.1
NOMO-1	107	107	101	98.6	97.4
SHI-1	111	112	103	110	120
THP-1	109	101	111	103	102

Conditions	IC50 (cell viability) [µM]
MV4-11 [4]	> 10

OCC(CO)N[C@H]1C[C@](O)(CO)[C@@H](O)[C@H](O)[C@H]1O [Voglibose]
cell viability [%], HL-60 [1]
Conditions	0.001 µM	0.01 µM	0.1 µM	1 µM	10 µM
co-treatment: AZD3965 100 nM	96.2 ± 11	103 ± 2.7	100 ± 4.9	96.5 ± 4.9	93.58 ± 0.69
co-treatment: DMSO vehicle	99.5 ± 2.6	99.9 ± 7	100 ± 5.8	99.4 ± 2.4	99.5 ± 1.4
co-treatment: GSK2194069 100 nM	104 ± 19	104 ± 7.5	104 ± 3.5	79.9 ± 24	97.3 ± 1.8
co-treatment: pictilisib 100 nM	113 ± 7.6	112 ± 7.8	106 ± 12	81.9 ± 38	99.1 ± 1.8

cell viability [%]
Conditions	1 nM	10 nM	100 nM	1000 nM	10000 nM
BV-173	113	112	99.3	93.8	102
HEL	124	107	97.3	99.1	118
HL-60 [2]	119	99.5	116	88.2	94.6
K-562	97.9	107	113	89.4	99.3
KCL-22	99.4	97.1	98	98.1	111
KG-1	95.6	102	107	95.6	106
KU-812	97.5	109	106	88.5	91.3
LAMA-84	102	105	99.6	94.6	103
ML-2	109	110	107	95.2	111
MOLM-13	117	94.4	127	70	70.1
MV4-11 [3]	106	107	113	84.7	52.7
Mono-Mac-6	102	96	109	86.7	91.8
NOMO-1	103	103	107	99.1	102
SHI-1	106	108	100	96	94.4
THP-1	108	96	93	101	99.1

Conditions	IC50 (cell viability) [µM]
MV4-11 [4]	6.47
